In patent US8003609B2, “Method for ameliorating pain by modification of NMDA receptors through inhibition of Src” (The Hospital for Sick Children, priority 2004, dated 2011):

Experiments:
[1] = system: cultured hippocampal neurons; type: cell-based, rat
Procedure: The dequenching response evoked by bath-applied FCCP (2 μM) in neurons from chloramphenicol-treated or control cultures was assessed. […] Nevertheless, it was noted that the intracellular solution used for all whole-cell recordings contained 2 mM Mg-ATP, so that the level of intracellular ATP was equal in all cells throughout the experiments.

[2] = system: Src association with the NMDAR complex; assay: co-immunoprecipitation of Src with the NMDAR complex in cultured hippocampal neurons; conditions: 50 μg/ml, 48 hours
ND2 = assay: immunoblots of total soluble protein from chloramphenicol-treated hippocampal neurons, ND2; conditions: 50 μg/ml, 48 hours treatment
[3] = system: 2.5% formalin-induced flinching or biting/licking behaviors; assay: formalin test (inflammatory pain); type: in vivo, rat; conditions: 0.1 pmol intravenously 45 minutes before testing; compared to HIV-Tat alone and saline; over an hour
Procedure: Male Sprague-Dawley rats 150-200 g were used for all experiments. Rats were housed in pairs, maintained on a 12/12 hour light/dark cycle, and allowed free access to food and water. All experiments were conducted during 10 am and […]. Peptide Src40-49Tat (TSUDAPI-1; SEQ ID NO:2) or Tat alone (amino acid residues 1-11 of SEQ ID NO:2) was dissolved in sterilized saline. Peptide or saline was injected intravenously at a volume 1 ml/Kg into rat's tail 45 minutes before behavioral testing. Injections were done under brief halothane anesthesia and rats were returned to the cages after injections. The formalin test was performed as previously described (Liu et al. European Journal of Pharmacology 408(2):143-152 2000). Rats were placed in a plexiglass observation chamber for an initial 20 minutes to allow acclimatization to the testing environment. Formalin 2.5% was injected subcutaneously in a volume of […] into the plantar aspect of the hind paw. Following injections, rats were returned to the observation chamber and monitored for flinching behaviors (lifting, shaking and overt flinching with a ripple over the haunch) and biting/licking time. […] Recorded episodes were not corrected, thus values represent about half of the total behaviors expressed. FIGS. 7A-D show the effect of Src40-49Tat (0.1 pmol) on 2.5% formalin induced flinching or biting/licking behaviors. […]

[4] = system: NR2B subunit of NMDA receptors; assay: NR2B tyrosine phosphorylation after formalin injection; type: in vivo; conditions: intrathecal administration; 60 minutes post-injection of formalin
Procedure: It can be seen that by 60 minutes post-injection of formalin, tyrosine phosphorylation of the NR2B subunit increases.

[5] = system: cuff-induced tactile allodynia; assay: cuff implantation tactile allodynia, paw withdrawal threshold; type: in vivo, mice
From the text: Pain induced by cuff implantation, in a laboratory animal such as a rat or mouse, is an art-accepted model of neuropathic pain. Generally, in cuff implantation a nerve root in the sciatic nerve leading to a hind paw is tied off by surgical implantation of a “cuff”, for example, a polyethylene ring. Over a period of time the nerve degenerates and a neuropathic pain pattern develops. A control is created by subjecting another group of animals to “sham surgery”, a procedure wherein the animals receive the same type of surgery as cuff implantation without the physical implantation of the cuff. After a period of time, the paw is stimulated by a series of filaments or exposure to a small amount of moderate heat. Pain is measured by observation of “paw withdrawal”, in general, if the animal lifts the paw and the time it takes to do so. Typically, an animal not experiencing neuropathic pain will not respond to the stimuli. When testing using filaments, threshold is defined in terms of force. […] This testing method is described in the art; Ren Physiological Behavior 67:711-716 1999 and Guo et al. The Journal of Neuroscience 22(14):6208-6217 2002.
In this experiment, tactile allodynia was induced in a group of mice by cuff implantation and symptoms were observed as early as day 3 post-surgery. Allodynia was allowed to fully develop at 8-10 days post-surgery before the “paw withdrawal” tests were performed. A group of mice received an intrathecal (introduced into the space under the arachnoid membrane of the brain or spinal cord) injection of 0.02 pmol of Src40-49Tat (TSUDAPI-1, SEQ ID NO:2), a second group of mice received an intrathecal injection of 0.02 pmol Scramble Src40-49Tat and a third group of mice received an intrathecal injection of saline. “Scramble Src40-49Tat” refers to TSUDAI-1 (SEQ ID NO:2) having a “scrambled” sequence, i.e. having amino acid residues out of order from the normal. Green represents Src40-49Tat (TSUDAPI-1, SEQ ID NO:2), grey represents Scramble Src40-49Tat and red represents saline. […] The reversal was significant at more than 5 hours post injection, with PWT 6.03±1.45 g (Src40-49Tat) versus 1.7±0.47 g (scrambled Src40-49Tat)(p<0.05).
Another group of mice received an intravenous injection of 10 pmol/g of Src40-49Tat (TSUDAPI-1, SEQ ID NO:2) and a second group of mice received an intravenous injection of saline. Green represents Src40-49Tat (TSUDAPI-1, SEQ ID NO:2) and red represents saline. […] The anti-allodynic effect of the peptide (SEQ ID NO:2) peaked at 2 hours following injection, with PWT 9.28±2.55 g (Src40-49Tat) versus 1.95±0.617 g (saline) (p<0.05).

[6] = system: NMDA receptor NR2B subunits; assay: NR2B tyrosine phosphorylation in spinal cord dorsal horn of cuffed rats; type: in vivo, rat; conditions: intrathecal injection of 0.02 pmol
From the text: This graph represents quantification of band (from western blots) density in three experiments.

cuff-induced allodynia = cuff-induced allodynia in wild-type and Src kinase null mice, paw withdrawal threshold; type: in vivo; conditions: 100 pmol intravenous injection
From the text: Pain induced by cuff implantation, in a laboratory animal such as a rat or mouse, is an art-accepted model of neuropathic pain. Generally, in cuff implantation a nerve root in the sciatic nerve leading to a hind paw is tied off by surgical implantation of a “cuff”, for example, a polyethylene ring. Over a period of time the nerve degenerates and a neuropathic pain pattern develops. A control is created by subjecting another group of animals to “sham surgery”, a procedure wherein the animals receive the same type of surgery as cuff implantation without the physical implantation of the cuff. After a period of time, the paw is stimulated by a series of filaments or exposure to a small amount of moderate heat. Pain is measured by observation of “paw withdrawal”, in general, if the animal lifts the paw and the time it takes to do so. Typically, an animal not experiencing neuropathic pain will not respond to the stimuli. When testing using filaments, threshold is defined in terms of force. […] This testing method is described in the art; Ren Physiological Behavior 67:711-716 1999 and Guo et al. The Journal of Neuroscience 22(14):6208-6217 2002. Another experiment was performed to compare cuff-induced allodynia in wild-type mice to Src kinase null mice (Src kinase knock-out mice). The PWT was tested in the mice prior to surgery. […]

NR2B subunit = assay: nerve-injury induced phosphorylation of NR2B in Src kinase null mice; type: in vivo
[7] = intravenous injection of 10 pmol/g

Row | Molecule | functioning of the neurons [1] | co-immunoprecipitation of Src with the NMDAR complex [2] | level of ND2 in the cultures reduced by (ND2) | pain behaviors in the formalin test [3] | formalin-induced increase of NR2B tyrosine phosphorylation [4] | PWT ([5]; intrathecal 0.02 pmol, more than 5 hours post injection) | onset of the reversal effect ([5]; intrathecal injection of 0.02 pmol) | reversal of allodynia ([5]; intrathecal injection of 0.02 pmol, 8-10 days post-surgery) | PWT ([5]; intravenous 10 pmol/g, 2 hours following injection) | onset of the reversal effect [5, 7] | reversal of allodynia [5, 7] | time of peak anti-allodynic effect following injection [5, 7] | increase in tyrosine phosphorylation of NR2B subunits in spinal cord dorsal horn [6] | PWT in null mice (cuff-induced allodynia; Src kinase null mice) | PWT after treatment (cuff-induced allodynia; wild-type mice, from 0.008±0.0 g before) | phosphorylation of NR2B subunits (NR2B subunit)
1 | O=C(N[C@H](CO)[C@H](O)c1ccc([N+](=O)[O-])cc1)C(Cl)Cl [chloramphenicol] | did not detectably compromise | suppress | more than 95% |  |  |  |  |  |  |  |  |  |  |  |  | 
2 | Src40-49Tat: SUDAPI-1 combined with the carrier peptide, HIV-Tat (SEQ ID NO:2) (YGRKKRRQRRRKPASADGHR; listed as Homo sapiens) |  |  |  | reduce pain behaviors | significantly reduced | 6.03 ± 1.45 g | as early as one hour | significantly reversed allodynia | 9.28 ± 2.55 g | as early as one hour | significantly reversed allodynia | 2 h | significantly reversed | did not further increase | 0.23 ± 0.05 g | did not further decrease
